Assay results: ChEMBL document CHEMBL5215000, “Seco B-Type Oligomers from Pinus massoniana Expand the Procyanidin Chemical Space and Exhibit Dental Bioactivity” (2022)

Test system: Dentine
Experiment: Bio-modification of human mid coronal dentine assessed as fold change in complex modulus at 0.2% w/v incubated for 1 hrs by dynamic mechanical analysis
Format: functional

SMILES	fold change (FC)
Oc1cc(O)c(C[C@H](O)[C@H](c2ccc(O)c(O)c2)c2c(O)cc(O)c3c2O[C@@H](c2ccc(O)c(O)c2)[C@@H](O)C3)c(O)c1	3.3
Oc1cc(O)c(C[C@H](O)[C@H](c2ccc(O)c(O)c2)c2c(O)cc(O)c3c2O[C@H](c2ccc(O)c(O)c2)[C@@H](O)C3)c(O)c1	3.3
Oc1cc(O)c2c(c1)O[C@H]([C@H](c1ccc(O)c(O)c1)c1c(O)cc(O)c3c1O[C@H](c1ccc(O)c(O)c1)[C@@H](O)C3)C2	5.2
Oc1cc(O)c(C[C@H](O)[C@H](c2ccc(O)c(O)c2)c2c(O)cc(O)c3c2O[C@@H](c2ccc(O)c(O)c2)[C@H](O)C3)c(O)c1	3.3
Oc1cc(O)c(C[C@@H]2Oc3c4c(cc(O)c3[C@H]2c2ccc(O)c(O)c2)O[C@H](c2ccc(O)c(O)c2)[C@@H](O)C4)c(O)c1	4.2
